One experiment deals with SQSTM1 mRNA. The experiment is described as follows: SQSTM1 mRNA abundance by RT-qPCR in MDA-MB-231 cells. The note with it: 48 h treatment. In kind it is cell-based, human. How it is done: Analysis of mRNA Abundance by RT-qPCR. Unless stated otherwise, all RT-qPCR experiments were performed to measure nascent RNA levels by using Click-it Nascent RNA Capture Kit (Cat #C10365, Thermo Fisher) per the manufacturer's protocols. Briefly, cells were treated with 0.2 mM of ethynyl uridine (EU) in growth medium for 16 h, after which the medium was replaced with fresh growth medium lacking EU. Compound or ASO treatment was performed at the same time of initial EU treatment, and compounds were replenished after replacing the medium to remove EU. Total RNA was extracted by using a Zymo Quick-RNA Miniprep Kit as per manufacturer's protocol with DNase treatment. The click reaction and pull-down of nascent RNA were performed as described in “In Vitro Chemical-Crosslinking and Isolation by Pull-down (Chem-CLIP) with Fluorescently Labeled RNA”. Reverse transcription (RT) was performed by using 300 ng total RNA and a QScript cDNA synthesis kit (QuantaBio) per manufacturer's protocols qPCR was performed in 384-well plates by using Power SYBR Green Master Mix (Life Technologies) on a QuantStudioS™ Cycler (Applied Biosystems) using the “Comparative Ct with Melt” method.

Experiment [1] has as its system base paired (BP) mutant RNA lacking the U-bulge. The experiment is described as follows: In vitro Chem-CLIP with Cy5-labeled mutant RNA. It is filed as binding. The note with it: U-bulge mutated to A/U base pair. The method, then: In Vitro Chemical-Crosslinking and Isolation by Pull-down (Chem-CLIP) with Fluorescently Labeled RNA. Cy5-labeled RNA (100 μL, 2 μM) was folded by heating at 95° C. for 2 min in 1× Folding Buffer and cooled on ice. The RNA was then mixed with F1 at the indicated concentrations. The sample was irradiated with UV light (365 nm) for 15 min and then added to 100 μL of azide-disulfide agarose beads (Click Chemistry Tools, 1238-2) pre-washed with 200 μL of 25 mM HEPES, pH 7.0. A click reaction solution was prepared by mixing 30 μL of 250 mM sodium ascorbate, 30 μL of 10 mM CuSO4, and 30 μL of 50 mM THPTA, which was added to the sample. The sample was incubated while rotating at 37° C. for 2 h, briefly centrifuged, and then the supernatant was decanted. The beads were washed six times with 1× Washing Buffer (10 mM Tris-HCl, pH 7, 4 M NaCl, 1 mM EDTA, and 0.05% (v/v) Tween-20) following by incubation with 1× Releasing Buffer (50 mM TCEP and 100 mM K2CO3) at 37° C. for 30 min. An equivalent of iodoacetamide (200 mM) was added to the sample, which was incubated at 37° C. for an additional 30 min. The sample was briefly centrifuged and supernatant containing RNA was carefully transferred to a clean tube. Cy-5 fluorescence in the supernatant was measured with a Molecular Devices SpectraMax M5 plate reader with an excitation wavelength of 640 nm and an emission wavelength of 680 nm. […]

A further experiment deals with human transcriptome. Nature of the experiment: Chem-CLIP-Map-Seq transcriptome-wide target profiling in live MDA-MB-231 cells. It is filed as cell-based. The settings on record: 20 μM, 16 h. The method, then: Additional studies were performed in live MDA-MB-231 cells to profile the cellular targets as well as the small molecule binding site within them, via Chem-CLIP-Map-Seq,^21 which had not previously been applied transcriptome-wide. After treatment (20 μM; 16 h) and cross-linking, total RNA was harvested and fragmented prior to pull-down (FIG. 2A). Random fragmentation was completed first to: 1) reduce sequence bias in library preparation, 2) reduce background signal in the RNA-seq analysis; and 3) allow for only the regions bound by the small molecules to be pulled down rather than the entire transcript, identifying both the target and the binding site within it. In parallel, a control diazirine probe that lacks an RNA-binding functionality (FIG. 2B) was used to identify targets that non-specifically react with the cross-linking moiety, where cross-linking is not driven by the RNA-binding elements.
Genrich uses a null model with a log-normal distribution to calculate p values by comparing sequencing runs of the same RNA sample before and after pull-down.
Chemical-Cross-linking and Isolation by Pull-down (Chem-CLIP) in Live Cells. MDA-MB-231 cells were seeded in 60 mm dishes and allowed to reach ˜80% confluency. The cells were then treated with 20 μM of compound in growth medium and incubated for 16 h. Cells were washed with 1×DPBS and irradiated with UV light for 10 min. Total RNA was harvested using a Zymo Quick-RNA Miniprep Kit per the manufacturer's protocol with DNase treatment. Total RNA was chemically fragmented by using an NEBNext Magnesium RNA Fragmentation Module (E6150S) per manufacturer's protocol to achieve final lengths between 100-150 nucleotides Pull-down of cross-linked RNAs was performed by adding 10 μg of total RNA to 100 μL of azide-disulfide agarose beads (Click Chemistry Tools, 1238-2) pre-washed with 25 mM HEPES, pH 7.0. The click reaction and pull-down were completed as described in “In Vitro Chemical-Crosslinking and Isolation by Pull-down (Chem-CLIP) with Fluorescently Labeled RNA”. The pulled down RNA was purified by RNA CleanXP beads (Beckman, A66514) per manufacturer's protocol.
RNA-seq Library Preparation and Data Analysis. The quality of the pulled down RNA was analyzed by using an Agilent 2100 Bioanalyzer RNA nanochip as well as to confirm fragment lengths. RNA concentration was quantified by Qubit 2.0 Fluorometer (Invitrogen). The input RNA (200 ng) was depleted of ribosomal RNA with NEBNext rRNA Depletion Module (E6310) according to manufacturer's recommendations. Library preparation was performed with NEBNext Ultra II Directional RNA kit (E7760) per manufacturer's protocols. Briefly, the rRNA-depleted samples were reverse transcribed with random hexamer primers to generate first strand cDNA, followed by second strand synthesis with dUTP instead of dTTP. The cDNA was end repaired and adenylated at their 3′ ends, followed by adaptor ligation. The strand information of the RNA was preserved by using USER enzyme (Uracil-specific excision reagent) to degrade the second strand. The cDNA was then PCR amplified with barcoded Illumina-compatible primers to generate the final libraries. These libraries were loaded into a NextSeq 500 v2.5 flow cell and sequenced with 2×40 bp paired-end chemistry. All fastq files were aligned to the human genome by STAR.^9 The output bam files were processed by Genrich (v0.6.1, available at https://github.com/jsh58/Genrich) for peak calling to identify regions of enrichment (p<0.001 and False Discovery Rate=1%). Fold enrichment was calculated by Deeptool^10 and visualized by IGV browser.^11 A minimum read count of 5 and a minimum fold enrichment of 1.5 were applied filter to filter out low-confidence peaks.

SMILES strings stand for the structures.

Consider `CCOC(=O)C1=C(Nc2ccccc2)S/C(=C\c2ccc(OCCOCCOCCOCCNC(=O)CCC(=O)N(C)[C@H]3CC[C@@H](c4ccc(Cl)c(Cl)c4)c4ccccc43)c(O)c2)C1=O` [Compound F1-RIBOTAC], for which, in the experiment with SQSTM1 mRNA, the “effect on SQSTM1 mRNA levels” value is on record as “No significant effect”.
Regarding `C#CCCC1(CCC(=O)N(C)[C@H]2CC[C@@H](c3ccc(Cl)c(Cl)c3)c3ccccc32)N=N1` [Compound F1], the “cross-linking / pull-down of mutant RNA” value in experiment [1] is reported as “ablated”. Further, in the experiment with human transcriptome, the “largest enrichments (two transcripts)” value is above 12 fold and the “number of transcripts enriched after eliminating transcripts also bound by the control diazirine” value came out at 51.

The values above are taken from US20250346943A1, “DEGRADER COMPOUNDS OF QSOX1 mRNA” (UNIVERSITY OF FLORIDA RESEARCH FOUNDATION, INCORPORATED, priority 2022, published 2025).
